Laboratory results reported in ChEMBL document CHEMBL3997830, “Design, synthesis and biological evaluation of nonsecosteroidal vitamin D3 receptor ligands as anti-tumor agents” (Bioorg Med Chem Lett, 2017).

What was measured:
[1] = system: PC-3; assay: Antiproliferative activity against human PC3 cells after 72 hrs by MTT assay; type: functional, cell-based; conditions: PC-3, 72 h
[2] = biological target: T1, Vitamin D3 receptor (Homo sapiens) (UniProt P11473); assay: Inhibition of Fluormone VDR Red binding to human VDR LBD expressed in insect cells assessed as binding ability at 1 uM by fluorescence polarization assay relative to 1,25(OH)2D3; design: scale not given: the % may be the effect or the level left
T1 sequence (whole entry): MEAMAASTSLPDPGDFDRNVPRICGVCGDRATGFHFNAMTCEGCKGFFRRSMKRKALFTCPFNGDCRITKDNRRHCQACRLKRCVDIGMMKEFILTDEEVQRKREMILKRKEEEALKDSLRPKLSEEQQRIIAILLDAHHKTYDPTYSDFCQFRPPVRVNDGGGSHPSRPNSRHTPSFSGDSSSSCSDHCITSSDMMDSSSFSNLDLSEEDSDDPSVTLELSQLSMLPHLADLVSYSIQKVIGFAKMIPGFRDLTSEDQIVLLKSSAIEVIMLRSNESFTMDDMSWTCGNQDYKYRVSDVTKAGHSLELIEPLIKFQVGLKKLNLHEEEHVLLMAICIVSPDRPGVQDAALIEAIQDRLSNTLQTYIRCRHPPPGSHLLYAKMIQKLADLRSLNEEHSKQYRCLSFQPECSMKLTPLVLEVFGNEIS

[3] = system: MCF7; assay: Antiproliferative activity against human MCF7 cells after 72 hrs by MTT assay; type: functional, cell-based; conditions: MCF7, 72 h
[4] = system: L02; assay: Antiproliferative activity against human L02 cells after 72 hrs by MTT assay; type: cell-based; conditions: L02, 72 h
[5] = Selectivity index, ratio of IC50 for human L02 cells to IC50 for human PC3 cells; type: functional
[6] = biological target: T2, Vitamin D3 receptor (Homo sapiens, UniProt P11473); assay: Inhibition of Fluormone VDR Red binding to human VDR LBD expressed in insect cells assessed as binding ability by fluorescence polarization assay
T2 sequence (P11473 whole entry): T1 sequence (whole entry)

[7] = Selectivity index, ratio of IC50 for human L02 cells to IC50 for human MCF7 cells; type: functional

CCn1c(C(=O)NCCC(=O)O)ccc1C(CC)(CC)c1ccc(C#CC(O)(CC)CC)c(C)c1
IC50 [1]: 5.13 µM | Activity [2]: 13.6% | IC50 [3]: > 50 µM

CCN(CC)CCNC(=O)c1ccc(C(CC)(CC)c2ccc(OCC(O)C(C)(C)C)c(C)c2)n1CC (stereo unspecified)
IC50 [4]: 21.2 µM | Ratio IC50 [5]: 7.6 | IC50 [6]: 0.0768 µM | IC50 [1]: 2.8 µM | Activity [2]: 25.5% | Ratio IC50 [7]: 15.5 | IC50 [3]: 1.37 µM

CCCCC(=O)c1ccc(C(CC)(CC)c2ccc(C#CC(O)(CC)CC)c(C)c2)n1CC
IC50 [1]: > 50 µM | IC50 [3]: > 50 µM

CCn1cc(C(CC)(CC)c2ccc(C#CC(O)(CC)CC)c(C)c2)cc1C(=O)NCCC(=O)O
IC50 [1]: > 50 µM | Activity [2]: 4.3% | IC50 [3]: 30.6 µM

CCN(CC)CCNC(=O)c1ccc(C(CC)(CC)c2ccc(C#CC(O)(CC)CC)c(C)c2)n1CC
IC50 [4]: 20.5 µM | Ratio IC50 [5]: 3.5 | IC50 [6]: 0.0732 µM | IC50 [1]: 5.85 µM | Activity [2]: 62.2% | Ratio IC50 [7]: 5.4 | IC50 [3]: 3.77 µM

CCN(CC)CCNC(=O)c1cc(C(CC)(CC)c2ccc(C#CC(O)(CC)CC)c(C)c2)cn1CC
IC50 [4]: 42.1 µM | Ratio IC50 [5]: 7.9 | IC50 [6]: 0.0565 µM | IC50 [1]: 5.35 µM | Activity [2]: 50.3% | Ratio IC50 [7]: 23.4 | IC50 [3]: 1.8 µM

C#CCCOC(=O)c1ccc(C(CC)(CC)c2ccc(C#CC(O)(CC)CC)c(C)c2)n1CC
IC50 [1]: > 50 µM | IC50 [3]: > 50 µM

CCn1cc(C(CC)(CC)c2ccc(C#CC(O)(CC)CC)c(C)c2)cc1C(=O)N[C@H](C(=O)O)C(C)C
IC50 [1]: 3.75 µM | Activity [2]: 20% | IC50 [3]: 12.6 µM

CCn1c(C(=O)NCCC(=O)OC)ccc1C(CC)(CC)c1ccc(C#CC(O)(CC)CC)c(C)c1
IC50 [1]: 36.3 µM | IC50 [3]: > 50 µM

CCn1cc(C(CC)(CC)c2ccc(C#CC(O)(CC)CC)c(C)c2)cc1C(=O)NCCN(C)C
IC50 [6]: 0.0513 µM | IC50 [1]: 10.1 µM | Activity [2]: 55.3% | IC50 [3]: 13.4 µM

CCn1cc(C(CC)(CC)c2ccc(C#CC(O)(CC)CC)c(C)c2)cc1C(=O)N[C@@H](C)CO
IC50 [4]: 35.4 µM | Ratio IC50 [5]: 5.9 | IC50 [1]: 6.05 µM | Activity [2]: 19.8% | Ratio IC50 [7]: 18.5 | IC50 [3]: 1.91 µM

CCCCC(=O)c1cc(C(CC)(CC)c2ccc(C#CC(O)(CC)CC)c(C)c2)cn1CC
IC50 [1]: 48.1 µM | IC50 [3]: > 50 µM

CCn1c(C(=O)N[C@H](C(=O)O)C(C)C)ccc1C(CC)(CC)c1ccc(C#CC(O)(CC)CC)c(C)c1
IC50 [1]: 5 µM | Activity [2]: 5.9% | IC50 [3]: 13 µM

CCn1cc(C(CC)(CC)c2ccc(C#CC(O)(CC)CC)c(C)c2)cc1C(=O)OCCO
IC50 [1]: 11.4 µM | Activity [2]: 29.7% | IC50 [3]: 1.88 µM

CCn1c(C(=O)NCc2ccc(OC)cc2)ccc1C(CC)(CC)c1ccc(C#CC(O)(CC)CC)c(C)c1
IC50 [1]: > 50 µM | Activity [2]: 4% | IC50 [3]: > 50 µM

CCN(CC)CCCNC(=O)c1ccc(C(CC)(CC)c2ccc(C#CC(O)(CC)CC)c(C)c2)n1CC
IC50 [1]: 8.5 µM | Activity [2]: 18.8% | IC50 [3]: 17.8 µM

CCn1cc(C(CC)(CC)c2ccc(C#CC(O)(CC)CC)c(C)c2)cc1C(=O)N[C@@H](C(=O)O)C(C)C
IC50 [1]: 10.3 µM | Activity [2]: 5.9% | IC50 [3]: 18 µM

CCn1cc(C(CC)(CC)c2ccc(C#CC(O)(CC)CC)c(C)c2)cc1C(=O)NCC(=O)O
IC50 [1]: 6.3 µM | Activity [2]: 14.6% | IC50 [3]: 17.5 µM

CCn1c(C(=O)NCCCO)ccc1C(CC)(CC)c1ccc(C#CC(O)(CC)CC)c(C)c1
IC50 [6]: 0.123 µM | IC50 [1]: > 50 µM | Activity [2]: 59.7% | IC50 [3]: 5.95 µM

CCn1c(C(=O)NCC(=O)O)ccc1C(CC)(CC)c1ccc(C#CC(O)(CC)CC)c(C)c1
IC50 [6]: 0.0857 µM | IC50 [1]: 2.25 µM | Activity [2]: 55.4% | IC50 [3]: 5.14 µM

CCn1c(C(=O)On2nnc3ccccc32)ccc1C(CC)(CC)c1ccc(C#CC(O)(CC)CC)c(C)c1
IC50 [1]: > 50 µM | IC50 [3]: > 50 µM

CCn1cc(C(CC)(CC)c2ccc(C#CC(O)(CC)CC)c(C)c2)cc1C(=O)NCC(=O)OC
IC50 [1]: 17.4 µM | IC50 [3]: 26.5 µM

CCn1cc(C(CC)(CC)c2ccc(C#CC(O)(CC)CC)c(C)c2)cc1C(=O)NCCCN(C)C
IC50 [1]: 15.1 µM | Activity [2]: 31.6% | IC50 [3]: 20.2 µM
